Our source for the IC50 values is patent US10138222B2, “Substituted benzamides as RIPK2 inhibitors” (Boehringer Ingelheim International GmbH, priority 2016, dated 2018).

As a reminder, the IC50 is the concentration that gives 50% inhibition.

Each structure is given as a SMILES string.

RIPK2, sequence (O43353 whole entry): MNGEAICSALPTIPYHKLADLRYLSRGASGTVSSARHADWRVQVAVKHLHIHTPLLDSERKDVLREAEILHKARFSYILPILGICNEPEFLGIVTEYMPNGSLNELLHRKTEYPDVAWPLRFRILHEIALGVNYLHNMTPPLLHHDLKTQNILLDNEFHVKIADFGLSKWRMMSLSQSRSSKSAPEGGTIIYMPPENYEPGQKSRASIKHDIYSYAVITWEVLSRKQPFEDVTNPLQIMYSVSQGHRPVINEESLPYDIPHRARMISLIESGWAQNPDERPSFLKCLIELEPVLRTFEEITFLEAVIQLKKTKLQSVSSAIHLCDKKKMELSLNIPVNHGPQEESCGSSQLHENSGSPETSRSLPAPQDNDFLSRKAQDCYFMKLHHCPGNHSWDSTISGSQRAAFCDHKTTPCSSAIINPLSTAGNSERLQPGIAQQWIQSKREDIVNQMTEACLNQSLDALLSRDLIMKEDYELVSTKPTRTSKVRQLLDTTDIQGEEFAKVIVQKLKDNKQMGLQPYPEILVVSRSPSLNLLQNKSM

The target of this test is RIPK2 (Homo sapiens (Human), UniProt O43353). The experiment in a line: RIPK2 inhibition, ADP-Glo Kinase Assay. The format is biochemical. Conditions: 8His-RIPK2 FL enzyme 8 nM, ATP 5 μM, 15 minutes pre-incubation, 60 minutes at 37° C., luminescence. On the procedure: RIPK2 inhibition for compounds in Table 1 are shown in Table 3 and measured using the following method:
Materials: White, 384-well optiplates (cat.no. 6007290) were purchased from PerkinElmer. The V9103X ADP-Glo Kinase Assay Custom (including ultra-pure ATP) was purchased from Promega. 8His-RIPK2 FL was prepared in-house. All other materials were of highest grade commercially available.
Method: In a 384-well plate, test compound diluted in assay buffer (1% DMSO final) is mixed with 8His-RIPK2 FL enzyme (final concentration of 8 nM). After 15 minutes of pre-incubation at RT, ATP dissolved in assay buffer is added (final concentration 5 μM). The mixture is incubated for 60 minutes at 37° C. in a humidified incubator. Then, ADP Glo Reagent is added, followed by a 40 minute incubation at rt. Finally, Kinase Detection Reagent is added and the entire mixture is incubated for 40 min at RT. The luminescence signal is measured with an Envision reader to determine the amount of ADP produced. Assay buffer: 25 mM HEPES (4-(2-hydroxyethyl)-1-piperazinethanesulfonic acid), 0.1% BSA (bovine serum albumin), 10 mM MgCl2, 5 mM MnCl2, 50 mM KCl, 0.01% CHAPS (3-[(3-cholamidopropyl)dimethylammonio]-1-propanesulfonate), 10 μM Na3VO4, 1 mM DTT (dithiothreitol), pH 7.5 All plates contain wells with vehicle controls instead of compound (1% DMSO) as reference for the high signal (100% CTL (100% of control), high signal), and wells without enzyme as reference for low signal (0% CTL, low signal). The luminescent signal generated is proportional to the ADP produced and is correlated with enzyme activity. The analysis of the data is performed by the calculation of the percentage of ADP production in the presence of the test compound and RIPK2 as compared to the ADP production in the presence of RIPK2 plus 50 μM Gefitinib. (RLU (relative luminescence units) (sample)−RLU(low control))*100/(RLU(high value)−RLU(low control)) [RLU=relative luminescence units].
Background: ADP-Glo first removes unused ATP, then detects ADP through luciferase.
`COc1cncc(-n2cc(-c3cc(C(=O)NC4CC4)c(F)cc3Cl)cn2)c1` [Example 26, 4-chloro-N-cyclopropyl-2-fluoro-5-[1-(5-methoxypyridin-3-yl)-1H-pyrazol-4-yl]benzamide] yielded a half-inhibitory concentration (IC50) of 8.9 nM.

`O=C(NC1CC1)c1cc(-c2cnn(-c3cccnc3)c2)c(Cl)cc1F` [Example 32, 4-chloro-N-cyclopropyl-2-fluoro-5-[1-(pyridin-3-yl)-1H-pyrazol-4-yl] benzamide]: the IC50 came out at 14 nM. Compared with the last compound, the IC50 is about 1.6-fold higher.

For the compound `Cc1ccc(C(=O)NC2CC2)cc1-c1cnn(-c2cncc(OCC3CC3)c2)c1` [Example 146, N-cyclopropyl-3-{1-[5-(cyclopropylmethoxy)pyridin-3-yl]-1H-pyrazol-4-yl}-4-methyl-benzamide], 6.1 nM corresponded to half-maximal inhibition (IC50).

Compound `CNC(=O)Nc1cncc(-n2cc(-c3cc(C(=O)NC4CC4)ccc3C)cn2)c1` [Example 107, N-cyclopropyl-4-methyl-3-(1-{5-[(methylcarbamoyl)amino]pyridin-3-yl}-1H-pyrazol-4-yl)benzamide] returned an IC50 of 3.3 nM.

`Cc1ccc(C(=O)NC2CC2)cc1-c1cnn(-c2cncc(NC3CCN(CC4CCOC4)CC3)c2)c1` (stereo not shown) [Example 154, N-cyclopropyl-4-methyl-3-[1-(5-{[1-(oxolan-3-ylmethyl)piperidin-4-yl]amino}pyridin-3-yl)-1H-pyrazol-4-yl]benzamide] yielded an IC50 of 1.8 nM.

`CC(=O)N1CC[C@@H](Oc2cncc(-n3cc(-c4cc(C(=O)NC5CC5)ccc4C)cn3)c2)C1` [Example 126, 3-[1-(5-{[(3R)-1-acetylpyrrolidin-3-yl]oxy}pyridin-3-yl)-1H-pyrazol-4-yl]-N-cyclopropyl-4-methyl-benzamide] came in with an IC50 of 20 nM.

With `CC(=O)N1CC(Oc2cncc(-n3cc(-c4cc(C(=O)NC5CC5)ccc4C)cn3)c2)C1` [Example 124, 3-(1-{5-[(1-acetylazetidin-3-yl)oxy]pyridin-3-yl}-1H-pyrazol-4-yl)-N-cyclopropyl-4-methylbenzamide], it took 13 nM to reach half-maximal inhibition (IC50).

For `Cc1ccc(C(=O)NC2CC2)cc1-c1cnn(-c2cncc(NC3CCN(C4CCOC4)CC3)c2)c1` (stereo not shown) [Example 166, N-cyclopropyl-4-methyl-3-[1-(5-{[1-(oxolan-3-yl)piperidin-4-yl]amino}pyridin-3-yl)-1H-pyrazol-4-yl] benzamide], 0.94 nM corresponded to half-maximal inhibition (IC50).

In turn, `Cc1cc(F)c(C(=O)NC2CC2)cc1-c1cnn(-c2cncc(NC3CC4CCC(C3)N4C3COC3)c2)c1` (stereo not shown) [Example 75, N-cyclopropyl-2-fluoro-4-methyl-5-[1-(5-{[8-(oxetan-3-yl)-8-azabicyclo[3.2.1]octan-3-yl]amino}pyridin-3-yl)-1H-pyrazol-4-yl]benzamide] registered an IC50 of 0.9 nM.

As for `Cc1ccc(C(=O)NC2CC2)cc1-c1cnn(-c2cncc(CO)c2)c1` [Example 43, N-cyclopropyl-3-{1-[5-(hydroxymethyl)pyridin-3-yl]-1H-pyrazol-4-yl}-4-methylbenzamide], the half-inhibitory concentration (IC50) was 24 nM.

For `Cc1ccc(C(=O)NC2CC2)cc1-c1cnn(-c2cncc(NC3CCN(CC4COCCO4)CC3)c2)c1` (stereo not shown) [Example 168, N-cyclopropyl-3-[1-(5-{[1-(1,4-dioxan-2-ylmethyl)piperidin-4-yl]amino}pyridin-3-yl)-1H-pyrazol-4-yl]-4-methylbenzamide], the half-inhibitory concentration (IC50) came to 0.95 nM. This IC50 lies about 25-fold lower than the previous one.

The compound `COc1cncc(-n2cc(-c3cc(C(=O)NC4CC4)ccc3C)cn2)n1` [Example 127, N-cyclopropyl-3-[1-(6-methoxy-pyrazin-2-yl)-1H-pyrazol-4-yl]-4-methylbenzamide] yielded an IC50 of 86 nM.

Consider `Cc1ccc(C(=O)NC2CC2)cc1-c1cnn(-c2cncc(NC(=O)NC3CCC3)c2)c1` [Example 109, 3-(1-{5-[(cyclobutylcarbamoyl)amino]pyridin-3-yl}-1H-pyrazol-4-yl)-N-cyclopropyl-4-methylbenzamide], for which the IC50 stood at 3.6 nM.

With `COCC(=O)Nc1cncc(-n2cc(-c3cc(C(=O)NC4CC4)ccc3C)cn2)c1` [Example 112, N-cyclopropyl-3-{1-[5-(2-methoxyacetamido)pyridin-3-yl]-1H-pyrazol-4-yl}-4-methylbenzamide], the half-inhibitory concentration (IC50) amounted to 7.8 nM.

Consider `Cc1ccc(C(=O)NC2CC2)cc1-c1cnn(-c2cncc(NC3CCN(C)CC3)c2)c1` [Example 76, N-cyclopropyl-4-methyl-3-(1-{5-[(1-methylpiperidin-4-yl)amino]pyridin-3-yl}-1H-pyrazol-4-yl)benzamide], for which half-maximal inhibition (IC50) was put at 0.61 nM.

For `Cc1cc(F)c(C(=O)NC2CC2)cc1-c1cnn(-c2cncc(N3CCC(N(C)C)CC3)c2)c1` [Example 171, N-Cyclopropyl-5-[1-(4-dimethyl-amino-3,4,5,6-tetrahydro-2H-[1,3″]bipyridinyl-5″-yl)-1H-pyrazol-4-yl]-2-fluoro-4-methyl-benzamide], the IC50 was determined as 1.4 nM.

Regarding `COCCNc1cncc(-n2cc(-c3cc(C(=O)NC4CC4)ccc3C)cn2)c1` [Example 60, N-cyclopropyl-3-(1-{5-[(2-methoxyethyl)amino]pyridin-3-yl}-1H-pyrazol-4-yl)-4-methylbenzamide], the IC50 came to 8.4 nM.

With `Cc1ccc(C(=O)NC2CC2)cc1-c1cnn(-c2cncc(C3CCOCC3)n2)c1` [Example 128, N-cyclopropyl-4-methyl-3-{1-[6-(oxan-4-yl)pyrazin-2-yl]-1H-pyrazol-4-yl}benzamide], the IC50 was 94 nM. This IC50 lies about 11-fold higher than the previous one.

In turn, `Cc1ccc(C(=O)NC2CC2)cc1-c1cnn(-c2cncc(C3(O)CCOCC3)c2)c1` [Example 137, N-cyclopropyl-3-{1-[5-(4-hydroxy-oxan-4-yl)pyridin-3-yl]-1H-pyrazol-4-yl}-4-methylbenzamide] registered a concentration for half-maximal inhibition (IC50) of 120 nM.

Turning to `Cc1ccc(C(=O)NC2CC2)cc1-c1cnn(-c2cncc(NCCN3CCOC3=O)c2)c1` [Example 58, N-cyclopropyl-4-methyl-3-[1-(5-{[2-(2-oxo-1,3-oxazolidin-3-yl)ethyl]amino}pyridin-3-yl)-1H-pyrazol-4-yl]benzamide], the midpoint of inhibition, the IC50, lay at 3.8 nM.

Take `Cc1ccc(C(=O)NC2CC2)cc1-c1cnn(-c2cncc(NC(=O)NC3CC3)c2)c1` [Example 108, N-cyclopropyl-3-(1-{5-[(cyclopropylcarbamoyl)amino]pyridin-3-yl}-1H-pyrazol-4-yl)-4-methylbenzamide]: the IC50 is 4.4 nM.

In turn, `Cc1ccc(C(=O)NC2CC2)cc1-c1cnn(-c2cncc(C(C)N3CCCC3=O)c2)c1` (stereo not shown) [Example 140, N-cyclopropyl-4-methyl-3-(1-{5-[1-(2-oxopyrrolidin-1-yl)ethyl]pyridin-3-yl}-1H-pyrazol-4-yl)benzamide] showed a half-maximal inhibitory concentration (IC50) of 38 nM.

On to `COc1cncc(-n2cc(-c3cc(C(=O)NC4CC4)ccc3Cl)cn2)c1` [Example 27, 4-chloro-N-cyclopropyl-3-[1-(5-methoxypyridin-3-yl)-1H-pyrazol-4-yl]benzamide], for which the IC50 stood at 22 nM.

Regarding `Cc1ccc(C(=O)NC2CC2)cc1-c1cnn(-c2cncc(CN3CCOCC3=O)c2)c1` [Example 135, N-cyclopropyl-4-methyl-3-(1-{5-[(3-oxomorpholin-4-yl)methyl]pyridin-3-yl}-1H-pyrazol-4-yl)benzamide], the IC50 turned out to be 120 nM.

In turn, `Cc1ccc(C(=O)NC2CC2)cc1-c1cn(-c2cccnc2)cn1` [Example 35, N-cyclopropyl-4-methyl-3-[1-(pyridin-3-yl)-1H-imidazol-4-yl] benzamide] came in with an IC50 of 39 nM. Compared with the last compound, the IC50 is about 3.1-fold lower.
